Measurements taken from paper PMC8814031, “Synthesis and characterization of novel combretastatin analogues of 1,1-diaryl vinyl sulfones, with antiproliferative potential via in-silico and in-vitro studies” (Scientific Reports, 2022).

What was measured:
[1] = test system: IMR-32 (neuroblast cancer) cells; test: MTT antiproliferative assay, IMR-32; assay type: cell-based; details: Homo sapiens, IMR-32, 48 h, mean ± SEM of three experiments, read-out: IC50 values against selected human cancer cell lines, IMR32
From the text: (§1) A panel of four cancer cell lines used for testing the in-vitro cytotoxicity include: MDA-MB-231 derived from human breast adenocarcinoma cells (ATCC No HTB-26), HeLa derived from human cervical cancer cells (ATCC No. CCL-2), A549 derived from human alveolar adenocarcinoma epithelial cells (ATCC No. CCL-185) and IMR-32 derived from human neuroblastoma cell line (ATCC No CCL-127), with a normal cell line HEK-293 (human embryonic kidney cell). These cancer cell lines were obtained from the American Type Culture Collection (ATCC), Manassas, VA, USA, and stored before use.
(§2) The cytotoxicity of synthesized compounds 4A–V were determined in triplicates by 3-[4,5-dimethylthiazol-2-yl]-2,5-diphenyltetrazolium bromide (MTT) assay[51]^,[52]. The pale yellow coloured tetrazolium salt (MTT) reduced to a dark blue water-insoluble formazan by metabolically active cells and the product was measured quantitatively after solubility in DMSO. The absorbance of the soluble formazan is directly proportional to the number of viable cells. A panel of four cancer cell lines were used for testing the in-vitro cytotoxicity. These cell lines were grown in Dulbecco’s modified Eagle’s medium (DMEM) containing non-essential amino acids and 10% FBS. All the cells were maintained under humidified conditions of 5% CO2 atmosphere at 37 °C in a CO2 incubator (Model Galaxy 170S, Eppendorf, USA). The 96-well micro titre plates were incubated for 24 h prior to addition of the experimental compounds. Cells were treated with vehicle alone (DMSO) or compounds (drugs (1 µg/mL) were dissolved in 100 µL DMSO previously) at different concentrations (0.1, 1, 10 and 25 µM) of test compounds for 48 h. The assay was completed with the addition of MTT (5%, 10µL) and incubated for 60 min at 37 °C. The supernatant was aspirated and plates were air dried and the MTT-formazan crystals were dissolved in 100 µL of DMSO.
(§3) The optical density (O.D) was measured at 570 nm using TECAN multimode reader (Infinite® M200Pro, Tecan, Switzerland). The percent cell viability of each treated well of 96 well plate was calculated based on test wells relative to control wells. Doxorubicin was used as positive controls for comparison purpose and 1% DMSO as a vehicle control. The cytotoxicity of test compounds was expressed in terms of IC50 value, which is defined as a concentration of compound that produced 50% reduction absorbance relative to control, and the absorbance at 570 nm wavelength was recorded.

A549 (lung cancer) cells = test: MTT antiproliferative assay, A549; assay type: cell-based; details: Homo sapiens, 48 h, mean ± SEM of three experiments, read-out: IC50 values against selected human cancer cell lines, A549
Description: These cancer cell lines were obtained from the American Type Culture Collection (ATCC), Manassas, VA, USA, and stored before use.
The pale yellow coloured tetrazolium salt (MTT) reduced to a dark blue water-insoluble formazan by metabolically active cells and the product was measured quantitatively after solubility in DMSO. The absorbance of the soluble formazan is directly proportional to the number of viable cells. A panel of four cancer cell lines were used for testing the in-vitro cytotoxicity. These cell lines were grown in Dulbecco’s modified Eagle’s medium (DMEM) containing non-essential amino acids and 10% FBS. […] The 96-well micro titre plates were incubated for 24 h prior to addition of the experimental compounds. […] The supernatant was aspirated and plates were air dried and the MTT-formazan crystals were dissolved in 100 µL of DMSO.
The optical density (O.D) was measured at 570 nm using TECAN multimode reader (Infinite® M200Pro, Tecan, Switzerland). The percent cell viability of each treated well of 96 well plate was calculated based on test wells relative to control wells. Doxorubicin was used as positive controls for comparison purpose and 1% DMSO as a vehicle control.

[2] = test system: MDA-MB 231 (breast cancer) cells; test: MTT antiproliferative assay, MDA-MB 231; assay type: cell-based; details: Homo sapiens, MDA-MB-231, 48 h, mean ± SEM of three experiments, read-out: IC50 values against selected human cancer cell lines, MDA-MB 231
From the text: as §1, §2, §3

[3] = test system: HEK-293 (human embryonic kidney normal cell line); test: MTT cytotoxicity assay, normal cell line HEK-293; assay type: cell-based; details: for IC50: Homo sapiens, HEK293, 48 h, normal cell line
From the text: as §1, §2, §3

[4] = test system: HeLa (cervical cancer) cells; test: MTT antiproliferative assay, HeLa; assay type: cell-based; details: Homo sapiens, HeLa, 48 h, mean ± SEM of three experiments, read-out: IC50 values against selected human cancer cell lines, HeLa
From the text: as §1, §2, §3

| SMILES | IC50 [1] | IC50 (A549 (lung cancer) cells) | IC50 [2] | melting point | IC50 [3] | IC50 [4] | Cytotoxicity towards normal cell line HEK-293 (in words) ([3]; normal cells) |
| --- | --- | --- | --- | --- | --- | --- | --- |
| COc1cc(/C(=C\S(=O)(=O)c2ccc(C)cc2)c2ccc(F)cc2F)cc(OC)c1OC [Compound 4I] | 15.1 ± 0.16 µM | 13.1 ± 0.86 µM | 12.7 ± 0.4 µM | 113 to 115 °C | > 25 µM | 9.46 ± 0.4 µM |  |
| COc1cc(/C(=C\S(=O)(=O)c2ccc(C)cc2)c2cc(C)ccc2F)cc(OC)c1OC [Compound 4R] | 6.14 ± 0.03 µM | 7.46 ± 0.07 µM | 12.2 ± 0.54 µM |  | > 25 µM | 10.5 ± 1.03 µM |  |
| COc1cc(/C(=C\S(=O)(=O)c2ccc(C)cc2)c2ccc(F)c(F)c2)cc(OC)c1OC [Compound 4J] | 12.03 ± 0.02 µM | 11.3 ± 0.83 µM | 13.1 ± 0.92 µM | 140 to 142 °C | > 25 µM | 9.98 ± 0.42 µM |  |
| COc1cc(OC)cc(/C(=C/S(=O)(=O)c2ccc(C)cc2)c2cc(OC)c(OC)c(OC)c2)c1 [Compound 4E] | 6.23 ± 0.09 µM | 5.32 ± 0.92 µM | 14.1 ± 1.51 µM | 163 to 165 °C | > 25 µM | 11.1 ± 0.51 µM |  |
| COc1cc(/C(=C\S(=O)(=O)c2ccc(C)cc2)c2ccc(F)c(Cl)c2)cc(OC)c1OC [Compound 4L] | 5.12 ± 0.36 µM | 8.54 ± 0.85 µM | 13.4 ± 1.49 µM | 123 to 125 °C | > 25 µM | 8.74 ± 0.49 µM |  |
| CCOc1ccc(F)c(/C(=C/S(=O)(=O)c2ccc(C)cc2)c2cc(OC)c(OC)c(OC)c2)c1 [Compound 4K] | 8.06 ± 0.09 µM | 7.02 ± 0.84 µM | 13.6 ± 0.89 µM | 125 to 127 °C | > 25 µM | 9.5 ± 0.49 µM |  |
| COc1cc(/C(=C\S(=O)(=O)c2ccc(C)cc2)c2ccc(C#N)cc2)cc(OC)c1OC [Compound 4O] | 9.08 ± 0.07 µM | 9.14 ± 0.91 µM | 12.4 ± 1.67 µM | 165 to 167 °C | > 25 µM | 9.83 ± 0.76 µM |  |
| COc1cc(/C(=C\S(=O)(=O)c2ccc(C)cc2)c2ccc(C(F)(F)F)cc2)cc(OC)c1OC [Compound 4H] | 7.48 ± 0.13 µM | 6.84 ± 0.7 µM | 15.9 ± 1.44 µM | 125 to 127 °C | > 25 µM | 9.62 ± 0.44 µM |  |
| COc1cc(/C(=C\S(=O)(=O)c2ccc(C)cc2)c2ccc(Cl)cc2)cc(OC)c1OC [Compound 4M] | 6.79 ± 0.44 µM | 5.12 ± 0.08 µM | 11.1 ± 1.5 µM | 96 to 98 °C | > 25 µM |  |  |
| COc1cc(C#CS(=O)(=O)c2ccc(C)cc2)cc(OC)c1OC [Compound 4V] |  |  |  | 119 to 121 °C |  |  | showed some level of cytotoxicity |
